Data on 21 compounds can be found in patent publication US5032398A, “Selective modification of the catalytic subunit of pertussis toxin” (priority 1986, dated 1991).

Format in all cases: biochemical
Experiment [1] has as its target T1, pertussis toxin (Bordetella pertussis, UniProt P04977). The experiment is described as follows: Inactivation of NADase activity by iodoacetate after different activator combinations (Example Seven). The conditions noted are these: additions to first incubation only (DTT 1 mM, ATP 1 mM, CHAPS 1%); second incubation none; read-out: Percent NADase activity relative to iced control. As to the method:
Pertussis toxin was incubated first at 37° C. for fifteen minutes in […] buffer A (100 mM Tris-HCl, pH 8.0 with 1 mM NaEDTA). EDTA was added to chelate divalent cations, which may promote oxidation of free --SH groups. During this incubation, DTT and ATP were present in concentrations of 1 mM each, and CHAPS was present in a concentration of 1 weight percent. Labelled iodoacetate was then added ([…], 12.5 mM), and the tube incubated on ice for twenty hours. The sample was then mixed with sodium dodecylsulfate and β-mercaptoethanol, heated at 95° C. for one minute, and electrophoresed. After electrophoresis, the gel was fixed, treated with Fluorohance (Research Products International), dried and used to expose x-ray film.
(§1) Pertussis toxin was incubated at 37° C. for fifteen minutes as described in Example Six, and then a second incubation was begun by adding 10 μl buffer A with or without 12.5 mM iodoacetate, mixing the contents of the tube and lowering the temperature to 30° C. After fifteen minutes, the tubes were shifted to an ice bath for ten minutes. A third incubation was then begun by adding 10 μl buffer A containing 200 mM DTT to those tubes containing iodoacetate to scavenge the iodoacetate. To those tubes not containing iodoacetate during the second incubation, a mixture of 200 mM DTT and 12.5 mM iodoacetate in buffer A, previously incubated for an hour on ice, was added. The third incubation was continued for one hour on ice.
(§2) The contents of each tube were then assayed for NADase activity by adding 40 μl of a reaction mix consisting of buffer A containing carbon-14 labelled NAD (final concentration in the 100 μl final volume was 25 μM), and 50 mM sodium chloride. Different reaction mixtures with various additions were used, so that in all tubes the final concentration of ATP was 1 mM and CHAPS was 1 weight percent. The assay was conducted at 37° C. for sixty minutes, and the released labelled nicotinimide was isolated and counted. The iced controls were formed by incubating pertussis toxin (1 μg) on ice in 10 mM sodium phosphate (pH 7) and 50 mM sodium chloride during the first three incubations. […] The first three incubations were done under a nitrogen atmosphere using degassed conditions, and the second and third incubations were done under subdued light.

Experiment [2] addresses T1, pertussis toxin. In words: Activation constants (A0.5) of polyphosphates by NADase assay. The conditions noted are these: for EC50 / fraction of the ATP effect: in the presence of a mild detergent. As to the method: In the description herein, activation constants for the substances may be expressed by a numerical value (A0.5) by using an NADase assay.
(§3) The pertussis toxin in the Examples comprised 50 μg of the toxin in a 500 μl solution of 10 mM sodium phosphate-50 mM sodium chloride-water solution having a pH of 7. The enzymatic activity was detected as the hydrolysis of nicotinamide labelled NAD and ion-exchange column chromatography to resolve the product from the substrate. Unless otherwise noted, the assay was initiated by adding 0.5 to 2.5 μg of the toxin to a reaction mixture for a final volume of 100 μl. The NADase reaction was terminated by adding 0.85 ml of ice-cold water. The entire 0.95 ml was then pipetted into a QAE-Sephadex column (chloride form) and the labelled nicotinamide eluted with 3 ml of water directly into a scintillation vial and counted. […] One unit of NADase activity is defined as 1 pmol NAD hydrolyzed per hour.

Experiment [3] deals with T1, pertussis toxin. The experiment is described as follows: Screen of compounds at 1 mM for stimulation of the NADase activity of the toxin (Example Three). The conditions noted are these: for Fractional Activation / Emax at 1000 µM: compound 1 mM, relative to 1 mM ATP, toxin preincubated with 20 mM DTT and 2% CHAPS, 3 h at 37° C, average ± half range of two trials; for Emax at 1000 µM: read-out: Fractional Activation.
Description: The ADP-ribosylating activity of the pertussis toxin can be detected as a nicotinamide-adenine dinucleotide-glycohydrolase (NADase) activity, which can be conveniently assayed through the use of [nicotinamide-^14 C] or [nicotinamide-^3 H] NAD. NAD consists of ADP-ribose linked to nicotinimide, and thus the extent of the release of ADP-ribose from NAD is an indication of the ability of the toxin to cause ill effects. In conducting this assay of the hydrolysis of labelled NAD, ion-exchange column chromatography was employed to resolve the product from the substrate according to the method described by Moss et al., J. Biol. Chem. 258, 11879 (1983) which is incorporated herein by reference. However, several modifications to this method were employed. First, a QAE-Sephadex resin was employed, as was a [nicotinamide-^3 H] NAD. Specifically, a 2 ml QAE-Sephadex column was first washed with 10 ml 1NHCl, followed by 10 ml H2 O, 20 ml 0.5M Tris-HCl pH 7.0, and 40 ml H2 O. [^3 H] NAD was applied, and the column washed with 20 ml water to elute impurities. Purified [^3 H] NAD was eluted with 0.25M NaCl, and stored in small aliquots at -70° C. The purified [^3 H] NAD contributed 50 mM NaCl (final concentration) to the NADase assays.
Before the end of the reaction, 2 ml QAE-Sephadex columns were treated with 10 ml 0.1M imidazole-HCl pH 7.0 with 1.0M NaCl, followed by 40 ml water. The NADase reaction (in 100 μl) was terminated by adding 0.85 ml of ice-cold water, and the entire 0.95 ml was pipetted into a treated QAE column. The labelled nicotinamide was then eluted with 3 ml of water directly into a scintillation vial and counted. The absorbed labelled NAD was then eluted into radioactive waste with 10 ml 0.1M imidazole-HCl pH 7.0 with 1.0M NaCl, and the column stored partially immersed in a water bath until the next assay.
as §3
The various compounds were screened for the ability to stimulate the NADase activity of the toxin when present in a concentration of 1 mM. Before assay the toxin (1 μg per assay) was incubated at 37° C. for ten minutes with 20 mM DTT and 2 weight percent CHAPS. Assays were for three hours at 37° C., and fractional activation is defined as activity of the compound less the activity in the absence of an activator divided by the activity in the presence of 1 mM ATP less activity in the absence of the activator. The value given is the average plus one-half the range for two separate trials. In each trial, duplicates were measured. […] The results are shown in Table II, wherein P denotes phosphate.

Experiment [4] has as its target T1, pertussis toxin. The experiment is described as follows: Inactivation of NADase activity by sulfhydryl reagents, 6 minutes or 18 hours at 0-4° (Example Eight). The conditions noted are these: first incubation: ATP, DTT, CHAPS. As to the method:
as §1, §2
The procedure followed in Example Seven was repeated for this study, except that N-ethylmaleimide, chloroacetamide or chloroacetate were substituted for iodoacetate. After the 30° C. incubation, the tubes were either incubated for six minutes or eighteen hours at 0°-4° C. before the 10 μl of 200 mM DTT (with or without quenched reagent) was added. Those tubes receiving the DTT after six minutes were incubated for nineteen hours at 0°-4° C. prior to the NADase assay. Those receiving the DTT after eighteen hours were incubated with DTT for one hour, as in Example Seven. The tubes were then assayed for NADase activity at the same time.

[5] abbreviates: FIGS. 1A and 1B, read-out: activation constants (A0.5).

Several values for one entry are separate records, joined by “and”; a condition that tells them apart may be missing. Equal entries are not always repeated. Where two headings read alike, the source gives them in different places. Bounds are passed on as bounds.

T1 sequence (P04977 35-269 limits assumed): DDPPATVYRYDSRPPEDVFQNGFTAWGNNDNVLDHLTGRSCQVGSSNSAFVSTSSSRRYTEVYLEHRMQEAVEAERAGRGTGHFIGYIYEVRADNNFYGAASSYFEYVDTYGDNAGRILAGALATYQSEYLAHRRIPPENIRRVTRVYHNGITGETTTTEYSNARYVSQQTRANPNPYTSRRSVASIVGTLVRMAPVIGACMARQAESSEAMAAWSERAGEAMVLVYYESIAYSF

As for `Nc1ncnc2c1ncn2[C@@H]1O[C@H](COP(=O)(O)OP(=O)(O)OP(=O)(O)O)[C@@H](O)[C@H]1O` [ATP], on pertussis toxin [1], the remaining activity at 1000 µM is 13%. Moreover, the results for the EC50 at pertussis toxin [2] (setting [5]) and on pertussis toxin [2] (read-out: activation constant) were 0.2 µM and roughly 0.2 µM, respectively. Also, on pertussis toxin [3], the “Stimulation (activation) of pertussis toxin, in words” value (“Stimulation (activation)” below) is “effective”. Also, at pertussis toxin [3] (two trials, without ATP 44 and 18), the “NADase activity in the presence of 1 mM ATP” value was 111 units per microgram toxin and 97 units per microgram toxin.

On to `O=P1([O-])OP(=O)([O-])OP(=O)([O-])O1.[Na+].[Na+].[Na+]` [trimeta-P, trimetaphosphate], for which the “fraction of the ATP effect” value at pertussis toxin [2] (FIGS. 1A and 1B) was 0.3. For the same compound, the EC50 at pertussis toxin [2] (setting [5]) was no less than 260 µM. Further, the “Fractional Activation” value at pertussis toxin [3] is on record as 0.69 ± .22.

In the case of `Nc1nc2c(ncn2[C@@H]2O[C@H](COP(=O)(O)OP(=O)(O)OP(=O)(O)O)[C@@H](O)[C@H]2O)c(=O)[nH]1` [GTP], at pertussis toxin [2] (setting [5]), the EC50 is 35 µM. For the same compound, the Emax at 1000 µM at pertussis toxin [3] came to 87 ± 1%.

`O=c1ccn([C@@H]2O[C@H](COP(=O)(O)OP(=O)(O)OP(=O)(O)O)[C@@H](O)[C@H]2O)c(=O)[nH]1` [UTP]: the EC50 at pertussis toxin [2] (setting [5]) stood at 15 µM. Further, the Emax at 1000 µM on pertussis toxin [3] amounted to 92 ± 3%.

Turning to `NC(=O)CCl` [chloroacetamide], on pertussis toxin [4] (6 minutes at 0-4°), the NADase activity is reported as 76 pmol per μg per hour and the “percent of activity with no addition to second incubation” value (“percent of activity with no addition” below) is recorded as 79%. At pertussis toxin [4] (18 hours at 0-4°), the NADase activity is 35 pmol per μg per hour and the “percent of activity with no addition” value was determined as 36%.

In the case of `Nc1ccn([C@@H]2O[C@H](COP(=O)(O)OP(=O)(O)OP(=O)(O)O)[C@@H](O)[C@H]2O)c(=O)n1` [CTP], the Emax at 1000 µM on pertussis toxin [3] was 103 ± 9%.

With `Cc1ncc(COP(=O)(O)O)c(C=O)c1O` [pyridoxal-P], at pertussis toxin [3], the Emax at 1000 µM came out at 53 ± 6%.

In the case of `O=P(O)(O)OP(=O)(O)OP(=O)(O)OP(=O)(O)O` [tetrapoly-P, tetrapolyphosphate], the “fraction of the ATP effect” value at pertussis toxin [2] (FIGS. 1A and 1B) was determined as 0.4. Moreover, the EC50 on pertussis toxin [2] (setting [5]) is no less than 170 µM. For the same compound, the “Fractional Activation” value at pertussis toxin [3] is recorded as 0.92 ± .12.

Regarding `O=P(O)(O)OP(=O)(O)OP(=O)(O)O` [tripoly-P, tripolyphosphate], at pertussis toxin [2] (FIGS. 1A and 1B), the “fraction of the ATP effect” value is on record as 0.6. On pertussis toxin [3], the “Fractional Activation” value is recorded as 0.98 ± .14.

On to `O=P(O)(O)OC[C@H]1OC(O)[C@H](O)[C@@H](O)[C@@H]1O` (stereo partly shown) [glucose-6-P, glucose 6-phosphate], for which, at pertussis toxin [3], the “Stimulation (activation)” value is “ineffective” and the Emax at 1000 µM was -3 ± 2%.

`O=c1[nH]cnc2c1ncn2[C@@H]1O[C@H](COP(=O)(O)OP(=O)(O)OP(=O)(O)O)[C@@H](O)[C@H]1O` [ITP]: the Emax at 1000 µM at pertussis toxin [3] was determined as 85 ± 1%.

Regarding `Nc1ncnc2c1ncn2[C@@H]1O[C@H](COP(=O)(O)OP(=O)(O)O)[C@@H](O)[C@H]1O` [ADP], the EC50 at pertussis toxin [2] (setting [5]) was determined as 6 µM. Besides, at pertussis toxin [3], the “Stimulation (activation)” value is on record as “effective” and the Emax at 1000 µM is 107 ± 6%.

As to `O=P(O)(O)OP(=O)(O)O` [pyro-P, pyrophosphate], the “fraction of the ATP effect” value at pertussis toxin [2] (FIGS. 1A and 1B) is recorded as 0.7. Moreover, at pertussis toxin [3], the “Stimulation (activation)” value is “effective” and the “Fractional Activation” value is 0.85 ± .11.

For the compound `O=P(O)(O)OC(CO)CO` [2-glycerol-P], the Emax at 1000 µM on pertussis toxin [3] was -1 ± 3%.

With `Nc1ncnc2c1ncn2[C@@H]1O[C@H](COP(=O)(O)O)[C@@H](O)[C@H]1O` [AMP], the Emax at 1000 µM at pertussis toxin [3] turned out to be 26 ± 9%.

`Nc1ncnc2c1ncn2[C@@H]1O[C@H](CO)[C@@H](O)[C@H]1O` [adenosine]: the “Effect on the dose-response relationship of ATP or pyrophosphate” value at pertussis toxin [2] (adenosine 1 mM) is “failed to significantly alter”. At pertussis toxin [3], the “Stimulation (activation)” value is “ineffective” and the Emax at 1000 µM stood at 2 ± 2%.

As for `NC(Cc1ccc(OP(=O)(O)O)cc1)C(=O)O` (stereo not shown) [tyrosine-P], the Emax at 1000 µM at pertussis toxin [3] is 2 ± 2%.

`CC(OP(=O)(O)O)C(N)C(=O)O` (stereo not shown) [threonine-P]: at pertussis toxin [3], the Emax at 1000 µM is 1 ± 1%.

For `O=P(O)(O)O` [P, phosphate], on pertussis toxin [3], the “Stimulation (activation)” value was “ineffective” and the “Fractional Activation” value was 0.01 ± .01.

Take `O=C(O)CCl` [chloroacetate]: on pertussis toxin [4] (6 minutes at 0-4°), the NADase activity turned out to be 86 pmol per μg per hour and the “percent of activity with no addition” value turned out to be 91%. In addition, on pertussis toxin [4] (18 hours at 0-4°), the NADase activity was 85 pmol per μg per hour and the “percent of activity with no addition” value was found to be 87%.

`NC(COP(=O)(O)O)C(=O)O` (stereo not shown) [serine-P]: the Emax at 1000 µM on pertussis toxin [3] is -4 ± 2%.
